According to patent US20260241046A1, “PROSTATE-SPECIFIC MEMBRANE ANTIGEN RECEPTOR-TARGETING RADIOPHARMACEUTICALS AND USES THEREOF” (Nuclidium AG, priority 2024, published 2026):
“And” between values parts separate entries of the source, which are not always exact repeats. Identical values can stand only once.

Key:
[1] = Dosimetry calculations (OLINDA/EXM 1.0, extrapolated human dose)
From the text: The data from the pharmacokinetic studies (Table 26) was decay-corrected using the half-life of ^61Cu to extrapolate the human dose. Since there were no measurements of the radioactivity accumulation in red marrow, this was estimated assuming a linear relationship between the blood and the red marrow residence times. The proportionality factor used was the ratio between the red marrow mass and human blood mass. The residence time (RT) for the stomach was approximated to be equal to the RT of the stomach wall since the animals were subjected to fasting before the biodistribution experiments. The heart was emptied from blood before measurements, and it was assumed that the total measured heart uptake was associated with the heart wall.
OLINDA/EXM 1.0 was used to integrate the fitted time-activity curves and to estimate the organ and effective doses using standard human whole-body adult female and male phantom models. Since the salivary glands are PSMA-positive and the organ is not included in the phantom, the dose absorbed was calculated separately, assuming that the weight of the human salivary gland is 30 g.

[2] = Shelf life at room temperature by reverse-phase radio-HPLC; type: physicochemical
Method: The shelf life of [^61Cu]Cu-NODAGA-PSMA I&T was assessed at room temperature in the reaction solution and the injection formulation at various time points after EoS. At pre-defined time points (up to 12 h), an aliquot was analyzed by radio-HPLC. The radiochemical purity was determined by analytical reverse-phase radio-HPLC using a Macherey Nagel Nucleodur ISIS C18 (5 μm, 250×4.6 mm) column. The results indicated a stability of over 95% up to 12 hours (Table 22).

LNCaP cells = assay: In vitro cellular uptake and internalization; type: cell-based, human; settings: for Cell surface fraction / Internalised fraction / Total uptake: % of total applied activity
Method: The cellular uptake of [^61Cu]Cu-NODAGA-PSMA I&T was studied in vitro using intact LNCaP cells seeded overnight in 6-well plates. On the day of the experiment, the cells were washed and incubated with [^61Cu]Cu-NODAGA-PSMA I&T at different time points, either alone or in the presence of 2-PMPA (10 μM) as a blocking agent, to distinguish between specific and non-specific uptake. At each investigated time point, the medium containing the unbound (free) [^61Cu]Cu-NODAGA-PSMA I&T was removed, followed by two washing steps with ice-cold phosphate-buffered saline. The cells were then treated for 2×5 min with ice-cold glycine solution (0.05 M, pH 2.8) to detach the cell surface-bound tracer (acid released). Afterwards, the cells containing the internalized [^61Cu]Cu-NODAGA-PSMA I&T were detached with 1 M sodium hydroxide at 37° C. and collected for measurement. The specific cell surface-bound and internalized tracer was expressed as a percentage of the total applied activity after subtracting the non-specific values. The results are presented in Table 23 as a mean value (n=3±standard deviation).

O=C([O-])CN1CCN(CC(=O)[O-])CCN([C@H](CCC(=O)N[C@H](Cc2ccc(O)c(I)c2)C(=O)N[C@H](Cc2ccccc2)C(=O)N[C@H](CCCCNC(=O)CCCCCCC(=O)NCCCC[C@H](NC(=O)N[C@@H](CCC(=O)O)C(=O)O)C(=O)O)C(=O)O)C(=O)O)CC1.[61Cu+2] [[^61Cu]Cu-NODAGA-PSMA I&T]
Effective Dose ([1]; Female): 0.0095 mSv/MBq and 9.54E−03 mSv/MBq
Total absorbed dose, Adrenals ([1]; Female): 9.86E−02 mGy/MBq
Total absorbed dose, Brain ([1]; Female): 5.59E−05 mGy/MBq
Total absorbed dose, Breasts ([1]; Female): 1.23E−03 mGy/MBq
Total absorbed dose, Gallbladder Wall ([1]; Female): 1.37E−02 mGy/MBq
Total absorbed dose, Heart Wall ([1]; Female): 5.03E−03 mGy/MBq
Total absorbed dose, Kidneys ([1]; Female): 1.00E+00 mGy/MBq
Total absorbed dose, LLI Wall ([1]; Female): 3.24E−03 mGy/MBq
Total absorbed dose, Liver ([1]; Female): 1.83E−02 mGy/MBq
Total absorbed dose, Lungs ([1]; Female): 4.86E−03 mGy/MBq
Total absorbed dose, Muscle ([1]; Female): 4.03E−03 mGy/MBq
Total absorbed dose, Osteogenic Cells ([1]; Female): 3.93E−03 mGy/MBq
Total absorbed dose, Ovaries ([1]; Female): 4.76E−03 mGy/MBq
Total absorbed dose, Pancreas ([1]; Female): 3.18E−02 mGy/MBq
Total absorbed dose, Red Marrow ([1]; Female): 6.94E−03 mGy/MBq
Total absorbed dose, Skin ([1]; Female): 1.82E−03 mGy/MBq
Total absorbed dose, Small Intestine ([1]; Female): 2.78E−02 mGy/MBq
Total absorbed dose, Spleen ([1]; Female): 5.65E−02 mGy/MBq
Total absorbed dose, Stomach Wall ([1]; Female): 1.08E−02 mGy/MBq
Total absorbed dose, Thymus ([1]; Female): 1.11E−03 mGy/MBq
Total absorbed dose, Thyroid ([1]; Female): 2.72E−04 mGy/MBq
Total absorbed dose, Total Body ([1]; Female): 9.46E−03 mGy/MBq
Total absorbed dose, ULI Wall ([1]; Female): 9.78E−03 mGy/MBq
Total absorbed dose, Urinary Bladder Wall ([1]; Female): 1.60E−03 mGy/MBq
Total absorbed dose, Uterus ([1]; Female): 3.94E−03 mGy/MBq
Effective Dose ([1]; Male): 0.0142 mSv/MBq and 1.42E−02 mSv/MBq
Total absorbed dose, Adrenals ([1]; Male): 8.39E−02 mGy/MBq
Total absorbed dose, Brain ([1]; Male): 6.18E−05 mGy/MBq
Total absorbed dose, Gallbladder Wall ([1]; Male): 2.30E−02 mGy/MBq
Total absorbed dose, Heart Wall ([1]; Male): 6.94E−03 mGy/MBq
Total absorbed dose, Kidneys ([1]; Male): 1.74E+00 mGy/MBq
Total absorbed dose, LLI Wall ([1]; Male): 4.64E−03 mGy/MBq
Total absorbed dose, Liver ([1]; Male): 2.51E−02 mGy/MBq
Total absorbed dose, Lungs ([1]; Male): 6.11E−03 mGy/MBq
Total absorbed dose, Muscle ([1]; Male): 6.00E−03 mGy/MBq
Total absorbed dose, Osteogenic Cells ([1]; Male): 5.31E−03 mGy/MBq
Total absorbed dose, Pancreas ([1]; Male): 4.83E−02 mGy/MBq
Total absorbed dose, Red Marrow ([1]; Male): 1.11E−02 mGy/MBq
Total absorbed dose, Skin ([1]; Male): 2.90E−03 mGy/MBq
Total absorbed dose, Small Intestine ([1]; Male): 3.79E−02 mGy/MBq
Total absorbed dose, Spleen ([1]; Male): 7.37E−02 mGy/MBq
Total absorbed dose, Stomach Wall ([1]; Male): 1.71E−02 mGy/MBq
Total absorbed dose, Testes ([1]; Male): 5.39E−04 mGy/MBq
Total absorbed dose, Thymus ([1]; Male): 1.67E−03 mGy/MBq
Total absorbed dose, Thyroid ([1]; Male): 4.99E−04 mGy/MBq
Total absorbed dose, Total Body ([1]; Male): 1.38E−02 mGy/MBq
Total absorbed dose, ULI Wall ([1]; Male): 1.43E−02 mGy/MBq
Total absorbed dose, Urinary Bladder Wall ([1]; Male): 2.06E−03 mGy/MBq
absorbed dose in the kidneys ([1]; after injecting 100-150 MBq): 0.17-0.26 Gy
RCP by HPLC ([2]; Injection formulation): 99.0 ± 0.2%
RCP up to 3 h (n = 3) ([2]; Injection formulation): 99.5 ± 0.2%
RCP up to 6 h (n = 3) ([2]; Injection formulation): 99.0 ± 0.5%
RCP up to 9 h (n = 3) ([2]; Injection formulation): 99.1 ± 0.5%
RCP up to 12 h (n = 2) ([2]; Injection formulation): 99.7 ± 0.41%
RCP by HPLC ([2]; Reaction solution): 99.4 ± 0.4%
RCP up to 3 h (n = 3) ([2]; Reaction solution): 99.6 ± 0.2%
RCP up to 6 h (n = 3) ([2]; Reaction solution): 99.5 ± 0.7%
RCP up to 9 h (n = 3) ([2]; Reaction solution): 99.1 ± 0.8%
RCP up to 12 h (n = 2) ([2]; Reaction solution): 99.7 ± 0.1%
stability ([2]; up to 12 hours): over 95%
time over which the radiotracer was continuously internalized (LNCaP cells): up to 120 minutes
Cell surface fraction (LNCaP cells; 5 min): 4.3 ± 0.7%
Internalised fraction (LNCaP cells; 5 min): 1.2 ± 0.2%
Total uptake (LNCaP cells; 5 min): 5.5 ± 0.9%
Cell surface fraction (LNCaP cells; 15 min): 8.2 ± 1.0%
Internalised fraction (LNCaP cells; 15 min): 3.9 ± 0.4%
Total uptake (LNCaP cells; 15 min): 12.1 ± 1.4%
Cell surface fraction (LNCaP cells; 30 min): 10.7 ± 1.0%
Internalised fraction (LNCaP cells; 30 min): 7.0 ± 1.1%
Total uptake (LNCaP cells; 30 min): 17.7 ± 2.1%
Cell surface fraction (LNCaP cells; 60 min): 10.8 ± 1.8%
Internalised fraction (LNCaP cells; 60 min): 11.7 ± 1.6%
Total uptake (LNCaP cells; 60 min): 22.5 ± 3.4%
Cell surface fraction (LNCaP cells; 120 min): 10.2 ± 1.8%
Internalised fraction (LNCaP cells; 120 min): 17.6 ± 2.8%
Total uptake (LNCaP cells; 120 min): 27.8 ± 4.6%
time of highest accumulation on the cell membrane (LNCaP cells; saturation of binding sites): ≤ 30 min
